These results are taken from patent US9126945B2, “N-(3-carbamoylphenly)-1H-pyrazole-5-carboxamide derivatives and the use thereof for controlling animal pests” (BAYER INTELLECTUAL PROPERTY GMBH, priority 2011, dated 2015).

Data set [1] deals with Myzus persicae. Description: Myzus test (MYZUPE spray treatment). As to conditions: for efficacy in %: application rate 500 g/ha, after 6 days. The data set is classed as in vivo. As to the method: Myzus test (Myzupe spray treatment)
After 6 days, the efficacy in % is determined.
Myzus Test (MYZUPE Spray Treatment)

Data set [2] has as its system Tetranychus urticae. Kind of data set: Tetranychus test, OP-resistant (TETRUR spray treatment), bean leaf discs. Format: in vivo. As to conditions: for efficacy in %: application rate 500 g/ha, after 6 days. As to the method: Tetranychus Test, OP-Resistant (TETRUR Spray Treatment)
After a time of 6 days, the efficacy in % is determined.

Data set [3] can be described thus: log P by HPLC, EEC Directive 79/831 Annex V.A8, method a). The data set is classed as physicochemical. As to the method: (§1) ^a) Note regarding the determination of the log P values and mass detection The determination of the given log P values was carried out in accordance with EEC Directive 79/831 Annex V.A8 by HPLC (High Performance Liquid Chromatography) on a reversed-phase column (C18). Agilent 1100 LC system; 50*4.6 Zorbax Eclipse Plus C18 1.8 micron; mobile phase A: acetonitrile (0.1% formic acid); mobile phase B: water (0.09% formic acid); linear gradient from 10% acetonitrile to 95% acetonitrile in 4.25 min, then 95% acetonitrile for a further 1.25 min; oven temperature 55° C.; flow rate: 2.0 ml/min Mass detection is via an Agilend MSD system.
as §1, with “mass detection:” for “mass detection”, “2.0 ml/min.” for “2.0 ml/min”

For data set [4], the system named is Phaedon cochleariae. Kind of data set: Phaedon test (PHAECO spray treatment), Chinese cabbage leaf discs. As to conditions: for efficacy in %: application rate 500 g/ha, after 7 days.
The test system of data set [5] is Ctenocephalides felis. Kind of data set: Ctenocephalides felis oral (CTECFE). The data set is classed as in vivo. The method, then:
Ctenocephalides felis Oral (CTECFE)
Solvent: 1 part by weight of dimethyl sulphoxide
For the purpose of producing a suitable preparation of active compound, 10 mg of active compound are mixed with 0.5 ml of dimethyl sulphoxide. A portion of the concentrate is diluted with citrated cattle blood, and the desired concentration is prepared.
About 20 unfed adult fleas (Ctenocephalides felis) are placed into a chamber which is closed at the top and bottom with gauze. A metal cylinder whose bottom end is closed with parafilm is placed onto the chamber. The cylinder contains the blood/active compound preparation, which can be taken up by the fleas through the parafilm membrane. After 2 days, the kill in % is determined.
For the purpose of preparing an appropriate active compound formulation, 10 mg of active compound are mixed with 0.5 ml of dimethyl sulphoxide. A portion of the concentrate is diluted with citrated cattle blood, and the desired concentration is prepared.
About 20 unfed adult fleas (Ctenocephalides felis) are placed into a chamber which is closed at the top and bottom with gauze. A metal cylinder whose bottom end is closed with parafilm is placed onto the chamber. The cylinder contains the blood/active compound preparation, which can be taken up by the fleas through the parafilm membrane.

Data set [6] relates to Spodoptera frugiperda. Description: Spodoptera frugiperda test (SPODFR spray treatment), maize leaf discs. Format: in vivo. As to conditions: application rate 500 g/ha; after 7 days. An excerpt:
Spodoptera frugiperda Test (SPODFR Spray Treatment)

Data set [7] has as its system Boophilus microplus. Description: Boophilus microplus test (BOOPMI injection). Format: in vivo. The method, then: Boophilus microplus Test (BOOPMI Injection)
(§2) Solvent: dimethyl sulphoxide
The active compound solution is injected into the abdomen (Boophilus microplus), and the animals are transferred into dishes and stored in a climate-controlled room. The activity is assessed by laying of fertile eggs.
The active compound solution is injected into the abdomen (Boophilus microplus), and the animals are transferred into dishes and stored in a climate-controlled room.
The activity is assessed by laying of fertile eggs. 100% means that none of the ticks has laid any fertile eggs.

For data set [8], the system named is Boophilus microplus females of the SP-resistant Parkhurst strain. Kind of data set: Boophilus microplus test (DIP). The data set is classed as in vivo. As to conditions: Rhipicephalus microplus, 168 h; BOOPMI DIP; 100 ppm; 7 dat. The method, then:
Boophilus microplus Test (DIP)
Test animals: adult engorged Boophilus microplus females of the SP-resistant Parkhurst strain
as §2
10 mg of active compound are dissolved in 0.5 ml of dimethyl sulphoxide. For the purpose of preparing a suitable formulation, the active compound solution is diluted with water to the concentration desired in each case.
This active compound preparation is pipetted into tubes. 8-10 ticks are transferred into a further tube with holes. The tube is immersed into the active compound formulation, and all ticks are completely wetted. After the liquid has rum off, the ticks are transferred to filter discs in plastic dishes and kept in a climatized room. The activity is assessed after 7 days by laying of fertile eggs. Eggs whose fertility is not outwardly visible are stored in glass tubes in a climate-controlled cabinet until the larvae hatch. An efficacy of 100% means that none of the ticks has laid any fertile eggs.
10 mg of active compound are dissolved in 0.5 ml of dimethyl sulphoxide. For the purpose of preparing a suitable formulation, the active compound solution is diluted with water to the concentration desired in each case (in ppm).
This active compound preparation is pipetted into tubes. 8-10 ticks are transferred into a further tube with holes. The tube is immersed into the active compound formulation, and all ticks are completely wetted. After the liquid has run out, the ticks are transferred onto filter discs in plastic dishes and stored in a climate-controlled room.
The activity is assessed after the desired time by laying of fertile eggs. Eggs whose fertility is not evident from the outside are kept in glass tubes in a climate-controlled cabinet until the larvae have hatched. An effect of 100% means that none of the ticks has laid any fertile eggs.

Data set [9] concerns Phaedon cochleariae. Description: Phaedon cochleariae spray test (PHAECO), cabbage leaves, ppm. The data set is classed as in vivo. The following applies: 168 h, 4 ppm, 7 dat. An excerpt:
Phaedon cochleariae Spray Test (PHAECO)
Solvent: 7 parts by weight of dimethylformamide
Emulsifier: 2 parts by weight of alkylaryl polyglycol ether
(§3) If the addition of ammonium salts or/and penetrants is required, these are in each case added in a concentration of 1000 ppm to the solution of the preparation.

For data set [10], the system named is Nilaparvata lugens. Kind of data set: Nilaparvata lugens spray test (NILALU). Format: in vivo. As to conditions: 168 h, 500 g/ha, 7 dat.
Text: Nilaparvata lugens Spray Test (NILALU)
as §3

The mark [11] stands for this setting: Myzus persicae, 144 h, MYZUPE, 6 dat.
Where [12] appears, read: reversed-phase C18 HPLC column; HPLC-MS method a), reversed-phase C18, acetonitrile/water with formic acid.
Where [13] appears, read: cell marked a): HPLC, reversed-phase C18, acetonitrile/water with formic acid, gradient 10% to 95% acetonitrile.
Setting [14] is: cell prints no method mark; Ex. 40 value equals the log P given under method a).

As to `Cn1nc(C(F)(F)C(F)(F)F)c(C(F)(F)F)c1C(=O)Nc1ccc(F)c(C(=O)NC2CC2)c1` [Ik-155, reference compound], the inhibition at 100 g/ha in [1] (setting [11]) amounted to 0%; in [2] (Tetranychus urticae, foliar, 144 h, TETRUR, 100 g/ha, 6 dat), 0%.
Turning to `Cn1nc(C2(F)CC2)c(Br)c1C(=O)Nc1ccc(Cl)c(C(=O)NC2(C#N)CC2)c1` [Example 1, 4-Bromo-N-{4-chloro-3-[(1-cyanocyclopropyl)carbamoyl]phenyl}-3-(1-fluorocyclopropyl)-1-methyl-1H-pyrazole-5-carboxamide], the chromatographic logP in data set [3] (setting [12]) was 2.5. Further, the efficacy in % in data set [4] and in data set [2] was 100% each time.
`CN(C(=O)c1c(C(F)(F)F)c(C(F)(F)F)nn1C)c1ccc(Cl)c(C(=O)NC2(C#N)CC2)c1` [Example 2, N-{4-Chloro-3-[(1-cyanocyclopropyl)carbamoyl]phenyl}-N,1-dimethyl-3,4-bis(trifluoromethyl)-1H-pyrazole-5-carboxamide] yielded a chromatographic logP in [3] (setting [12]) of 2.81. The “kill in % (effect)” value in [5] (100 ppm, after 2 days) is reported as 100%. Moreover, the efficacy in % in data set [4], in [1], in data set [6] and in data set [2] was 100% in each case. The “efficacy in % (laying of fertile eggs)” value in [7] (20 μg/animal, after 7 days) is given as 100%.
Molecule `CCC1CC1NC(=O)c1cc(NC(=O)c2c(C(F)(F)F)c(C(F)(F)C(F)(F)F)nn2C)ccc1Cl` (centres unmarked) [Ik-286, reference compound] came in with an inhibition at 4 ppm in [5] (Ctenocephalides felis, po, 48 h, CTECFE, 4 ppm, 2 dat) of 0%. The same molecule came in with an inhibition at 100 ppm in data set [8] of 40%. In addition, the inhibition at 100 g/ha in data set [4] (Phaedon cochleariae, in Brassica rapa, foliar, 168 h, read-out: % Activity dat) was found to be 0%. The inhibition at 20 g/ha in data set [1] (Myzus persicae, 144 h, MYZUPE, 20 g/ha, 6 dat) stood at 0%. For the same molecule, in data set [7] (BOOPMI injection, 0.16 μg/animal, 7 dat), the “% Activity dat” value stood at 20%.
Turning to `CN(C(=O)c1c(C(F)(F)F)c(C(F)(F)C(F)(F)F)nn1C)c1ccc(Cl)c(C(=O)N(C)C2(C#N)CC2)c1` [Example 5], the logP in [3] (setting [13]) is 3.59 ^a). The efficacy in % in [4] is 100%; in data set [1], 90%; in data set [6], 100%; in data set [2], 100%.
In turn, `Cn1nc(C(F)(F)C(F)(F)F)c(C(F)(F)F)c1C(=O)Nc1ccc(Br)c(C(=O)NC2CC2)c1` [Ik-175, reference compound] returned an inhibition at 4 ppm in data set [9] of 10%. Further, the inhibition at 100 g/ha in [1] (setting [11]) was 0%. The same molecule registered an inhibition at 500 g/ha in [10] of 0%.
Take `CC(=O)N(C(=O)c1cc(NC(=O)c2c(C(F)(F)F)c(C(F)(F)C(F)(F)F)nn2C)ccc1Cl)C1(C#N)CC1` [Example 40, N-{3-[Acetyl(1-cyanocyclopropyl)carbamoyl]-4-chlorophenyl}-1-methyl-3-(pentafluoroethyl)-4-(trifluoromethyl)-1H-pyrazole-5-carboxamide]: the chromatographic logP in data set [3] (setting [12]) and in data set [3] (reversed-phase HPLC column (C18); cell prints no method mark; Ex. 40 value equals the log P given under method a)) was 3.81 in each case.
Consider `Cn1nc(C2(F)CC2)c(Cl)c1C(=O)O` [4-Chloro-3-(1-fluorocyclopropyl)-1-methyl-1H-pyrazole-5-carboxylic acid], for which the chromatographic logP in data set [3] (setting [12]) stood at 3.07.
The same measure, in the same setting: in the case of `CCOC(=O)c1c(Cl)c(C2(Cl)CC2)nn1C` [Ethyl 4-chloro-3-(1-chlorocyclopropyl)-1-methyl-1H-pyrazole-5-carboxylate] it was 3.52.
In the case of `CCN(C(=O)c1cc(N(C)C(=O)c2c(C(F)(F)F)c(C(F)(F)C(F)(F)F)nn2C)ccc1Cl)C1(C#N)CC1` [Example 4], in data set [3] (setting [13]), the logP is 3.77 ^a). For the same molecule, the efficacy in % in [4], in [1], in data set [6] and in [2] was 100% in each case.
Turning to `COC(=O)N(C(=O)c1c(C(F)(F)F)c(C(F)(F)C(F)(F)F)nn1C)c1ccc(Cl)c(C(=O)NC2(C#N)CC2)c1` [Example 19], the log partition coefficient (logP) in data set [3] (setting [14]) amounted to 3.69.
For `Cn1nc(C(F)(F)F)c(C(F)(F)F)c1C(=O)Nc1cc(Br)c(Br)c(C(=O)NC2(C#N)CC2)c1` [Example 11], the log partition coefficient (logP) in data set [3] (setting [14]) came out at 3.30.
As to `CN(C(=O)c1c(Cl)c(C2(Cl)CC2)nn1C)c1ccc(Cl)c(C(=O)NC2(C#N)CC2)c1` [Example 3], the logP in data set [3] (setting [13]) is listed as 2.46 ^a). For the same molecule, the efficacy in % in data set [4] and in data set [2] was 100% each time.
Molecule `Cn1nc(C(F)(F)C(F)(F)F)c(C(F)(F)F)c1C(=O)N(Cc1ccccc1)c1ccc(Cl)c(C(=O)NC2(C#N)CC2)c1` [Example 31] had a logP in data set [3] (setting [14]) of 3.97.
For `CSc1c(C(F)(F)C(F)(F)F)nn(C)c1C(=O)O` [1-Methyl-4-(methylsulphanyl)-3-(pentafluoroethyl)-1H-pyrazole-5-carboxylic acid], in [3] (reversed-phase HPLC column (C18), HPLC-MS, method note not marked), the chromatographic logP was 3.51.
The molecule `Cn1nc(C2(F)CC2)c(Cl)c1C(=O)Nc1ccc(Cl)c(C(=O)NC2(C#N)CC2)c1` [Example 17] came in with a logP in [3] (setting [14]) of 2.50.
Same read-out and setting: under `CC(=O)N(C(=O)c1c(C(F)(F)F)c(C(F)(F)C(F)(F)F)nn1C)c1ccc(Cl)c(C(=O)N(C(C)=O)C2(C#N)CC2)c1` [Example 18] stands 4.04.
The same measure, in the same setting: under `Cn1nc(C(F)(F)C(F)(F)F)c(C(F)(F)F)c1C(=O)N(Cc1ccncc1)c1ccc(Cl)c(C(=O)NC2(C#N)CC2)c1` [Example 56] stands 2.52; under `CC(=O)N(C(=O)c1c(C(F)(F)F)c(C(F)(F)C(F)(F)F)nn1C)c1ccc(Cl)c(C(=O)NC2(C#N)CC2)c1` [Example 53], 3.63; under `COC(=O)N(C(=O)c1c(C(F)(F)F)c(C(F)(F)C(F)(F)F)nn1C)c1ccc(Cl)c(C(=O)N(C(=O)OC)C2(C#N)CC2)c1` [Example 21], 4.32.
On the same count and under the same terms, under `C#CCn1nc(C(F)(F)C(F)(F)F)c(C(F)(F)F)c1C(=O)Nc1ccc(Cl)c(C(=O)NC2(C#N)CC2)c1` [Example 57] stands 3.58.

The term chromatographic logP denotes lipophilicity estimated from chromatographic retention. The term logP denotes a log measure of how a compound divides between an organic and an aqueous phase.
